Literature values, collected in patent US20240398698A1, “CONAZOLANTIFUNGAL KETOE IN SOLUTION OR SUSPENSION FOR USE IN THE HUMAN EAR” (priority 2023, published 2024).

Compound: CC(=O)N1CCN(c2ccc(OCC3COC(Cn4ccnc4)(c4ccc(Cl)cc4Cl)O3)cc2)CC1 (stereo not drawn) [Ketoconazole, ketoconazole]
- solubility in acetic acid (acetic acid): not soluble
- solubility in alcohol (alcohol): soluble
- solubility in water (water): poorly soluble
